In ChEMBL document CHEMBL1131284, “Hydroxamate-based inhibitors of low affinity IgE receptor (CD23) processing” (Bioorg Med Chem Lett, 1998):

biological target: T1, Interstitial collagenase (Homo sapiens, UniProt P03956); assay: Inhibitory activity towards human recombinant fibroblast collagenase
T1 sequence (P03956 whole entry): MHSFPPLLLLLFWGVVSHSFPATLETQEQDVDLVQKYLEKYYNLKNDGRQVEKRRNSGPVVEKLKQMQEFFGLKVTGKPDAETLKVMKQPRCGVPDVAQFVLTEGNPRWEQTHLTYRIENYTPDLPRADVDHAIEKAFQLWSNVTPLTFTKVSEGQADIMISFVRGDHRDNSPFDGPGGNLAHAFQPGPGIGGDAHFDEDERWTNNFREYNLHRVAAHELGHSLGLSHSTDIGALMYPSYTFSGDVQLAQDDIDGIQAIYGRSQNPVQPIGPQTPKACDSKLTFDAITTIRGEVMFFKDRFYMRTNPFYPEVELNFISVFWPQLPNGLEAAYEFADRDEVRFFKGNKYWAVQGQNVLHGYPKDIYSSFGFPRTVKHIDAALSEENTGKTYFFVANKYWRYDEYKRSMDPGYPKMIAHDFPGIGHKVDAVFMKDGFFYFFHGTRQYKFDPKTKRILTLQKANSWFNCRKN

| Compound | IC50 |
| --- | --- |
| O=C(C[C@@H](CCC1CCCCC1)C(=O)N[C@@H](Cc1ccccc1)C(=O)NCc1ccccc1)NO | > 10 µM |
| O=C(C[C@H](C(=O)N[C@@H](Cc1ccccc1)C(=O)NCc1ccccc1)C1CCCCC1)NO | 1.5 µM |
| O=C(C[C@H](C(=O)N[C@@H](Cc1ccccc1)C(=O)NCc1ccccc1)c1ccc(-c2ccccc2)cc1)NO | > 10 µM |
| O=C(C[C@@H](Cc1ccc2ccccc2c1)C(=O)N[C@@H](Cc1ccccc1)C(=O)NCc1ccccc1)NO | > 10 µM |
| O=C(C[C@@H](Cc1ccccc1)C(=O)N[C@@H](Cc1ccccc1)C(=O)NCc1ccccc1)NO | 7 µM |
| O=C(C[C@H](C(=O)N[C@@H](Cc1ccccc1)C(=O)NCc1ccccc1)c1cccc2ccccc12)NO | > 10 µM |
| O=C(C[C@@H](CC1CCCCC1)C(=O)N[C@@H](Cc1ccccc1)C(=O)NCc1ccccc1)NO | 4.6 µM |
| O=C(C[C@@H](CCc1ccccc1)C(=O)N[C@@H](Cc1ccccc1)C(=O)NCc1ccccc1)NO | 4.1 µM |

Next, values leading:

| IC50 | Compound |
| --- | --- |
| > 10 µM | O=C(CCC(=O)N[C@@H](Cc1ccccc1)C(=O)NCc1ccccc1)NO |
| 1.9 µM | CC(C)S[C@H](CC(=O)NO)C(=O)N[C@@H](Cc1ccccc1)C(=O)NCc1ccccc1 |
| > 10 µM | CN(C)C[C@H](CC(=O)NO)C(=O)N[C@@H](Cc1ccccc1)C(=O)NCc1ccccc1 |
| 0.02 µM | O=C(C[C@@H](CC1CCCC1)C(=O)N[C@@H](Cc1ccccc1)C(=O)NCc1ccccc1)NO |
| 17 µM | O=C(C[C@H](C(=O)N[C@@H](Cc1ccccc1)C(=O)NCc1ccccc1)c1ccccc1)NO |
| 0.03 µM | CC(C)C[C@H](CC(=O)NO)C(=O)N[C@@H](Cc1ccccc1)C(=O)NCc1ccccc1 |
| > 10 µM | CC(C)C[C@@H](CC(=O)NO)C(=O)N[C@@H](Cc1ccccc1)C(=O)NCc1ccccc1 |
| > 10 µM | C[C@H](CC(=O)NO)C(=O)N[C@@H](Cc1ccccc1)C(=O)NCc1ccccc1 |
